# In patent US11957687B2 (REGENERON PHARMACEUTICALS, INC., priority 2019, dated 2024):
# Molecular target: HSD17B13 (Homo sapiens (Human), UniProt Q7Z5P4)
# Assay: HSD17B13 enzymatic inhibition assay (150 nM or 50 nM HSD17B13)
# Format: biochemical
# Details: 50 nM HSD17B13; read-out: Inhibition of 50 nM of HSD17B13 IC50
# HSD17B13, sequence (Q7Z5P4 other isoform, or with tags, fused parts or gaps): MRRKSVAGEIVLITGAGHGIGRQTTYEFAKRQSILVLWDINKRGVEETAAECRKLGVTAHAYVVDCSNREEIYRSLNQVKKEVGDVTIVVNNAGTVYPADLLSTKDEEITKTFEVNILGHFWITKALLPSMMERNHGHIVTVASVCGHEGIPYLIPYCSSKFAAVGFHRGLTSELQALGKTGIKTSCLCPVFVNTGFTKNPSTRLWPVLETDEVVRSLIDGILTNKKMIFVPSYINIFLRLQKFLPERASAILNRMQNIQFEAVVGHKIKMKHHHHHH
row,Structure (SMILES),IC50 [µM]
1,"Cc1ccc2c(c1)OCC2NC(=O)c1ccc(C(F)(F)F)[nH]c1=O (stereo not shown) [Compound 395, N-(6-methyl-2,3-dihydrobenzofuran-3-yl)-2-oxo-6-(trifluoromethyl)-1,2-dihydropyridine-3-carboxamide]",9.17
2,"Cc1ccc2c(c1)SCCC2NC(=O)c1ccc(C(F)(F)F)[nH]c1=O (stereo not shown) [Compound 396, N-(7-methylthiochroman-4-yl)-2-oxo-6-(trifluoromethyl)-1H-pyridine-3-carboxamide]",0.26
3,"Cc1ccc([C@H](NC(=O)c2ccc(C(F)(F)F)[nH]c2=O)[C@@H]2CCCOC2)cc1 [Compound 397, 2-oxo-N—((R)—((S)-tetrahydro-2H-pyran-3-yl)(p-tolyl)methyl)-6-(trifluoromethyl)-1,2-dihydropyridine-3-carboxamide]",2.97
4,"Cc1ccc([C@H](NC(=O)c2ccc(C(F)(F)F)[nH]c2=O)[C@H]2CCCOC2)cc1 [Compound 398, 2-oxo-N—((R)—((R)-tetrahydro-2H-pyran-3-yl)(p-tolyl)methyl)-6-(trifluoromethyl)-1,2-dihydropyridine-3-carboxamide]",6.15
5,"CC1CCC(C(NC(=O)c2ccc(C(F)(F)F)[nH]c2=O)c2ccccc2)CC1 (stereo not shown) [Compound 399, N-((4-methylcyclohexyl)(phenyl)methyl)-2-oxo-6-(trifluoromethyl)-1,2-dihydropyridine-3-carboxamide]",0.3
6,"Cc1ccc(C(NC(=O)c2ccc(C(F)(F)F)[nH]c2=O)C2CCC(C)CC2)cc1 (stereo not shown) [Compound 400, N-((4-methylcyclohexyl)(p-tolyl)methyl)-2-oxo-6-(trifluoromethyl)-1,2-dihydropyridine-3-carboxamide]",0.23
7,"CCCC(NC(=O)c1ccc(C(F)(F)F)[nH]c1=O)c1ccc(C)cc1 (stereo not shown) [Compound 402, 2-oxo-N-(1-(p-tolyl)butyl)-6-(trifluoromethyl)-1,2-dihydropyridine-3-carboxamide]",0.36
8,"CCCC1CC(NC(=O)c2ccc(C(F)(F)F)[nH]c2=O)c2cc(C)ccc2O1 (stereo not shown) [Compound 403, N-(6-methyl-2-propylchroman-4-yl)-2-oxo-6-(trifluoromethyl)-1,2-dihydropyridine-3-carboxamide]",0.11
9,"CCC1CC(NC(=O)c2ccc(C(F)(F)F)[nH]c2=O)c2cc(C)ccc2O1 (stereo not shown) [Compound 404, N-(2-ethyl-6-methylchroman-4-yl)-2-oxo-6-(trifluoromethyl)-1,2-dihydropyridine-3-carboxamide]",0.22
10,"Cc1ccc2c(c1)C(NC(=O)c1ccc(C(F)(F)F)[nH]c1=O)CO2 (stereo not shown) [Compound 408, N-(5-methyl-2,3-dihydrobenzofuran-3-yl)-2-oxo-6-(trifluoromethyl)-1,2-dihydropyridine-3-carboxamide]",2.47
11,"COc1ccc2c(c1)Sc1cc(N)ccc1C2NC(=O)c1ccc(C(F)F)[nH]c1=O (stereo not shown) [Compound 410, N-(3-amino-6-methoxy-9H-thioxanthen-9-yl)-6-(difluoromethyl)-2-oxo-1,2-dihydropyridine-3-carboxamide]",0.43
12,"COc1ccc2c(c1)Sc1cc(N)ccc1C2NC(=O)c1ccc(C(F)(F)F)[nH]c1=O (stereo not shown) [Compound 411, N-(3-amino-6-methoxy-9H-thioxanthen-9-yl)-2-oxo-6-(trifluoromethyl)-1,2-dihydropyridine-3-carboxamide]",0.08
13,"Cc1ccc(C(CC2CCCC2)NC(=O)c2ccc(C(F)(F)F)[nH]c2=O)cc1 (stereo not shown) [Compound 412, N-(2-cyclopentyl-1-(p-tolyl)ethyl)-2-oxo-6-(trifluoromethyl)-1,2-dihydropyridine-3-carboxamide]",0.11
14,"O=C(NC1c2cc(OC(F)(F)F)ccc2-c2ccc(OC(F)(F)F)cc21)c1ccc(C(F)(F)F)[nH]c1=O [Compound 413, N-(2,7-bis(trifluoromethoxy)-9H-fluoren-9-yl)-2-oxo-6-(trifluoromethyl)-1,2-dihydropyridine-3-carboxamide]",0.88
15,"COc1ccc2c(c1)C(NC(=O)c1ccc(C(F)(F)F)[nH]c1=O)c1cc(OC)ccc1-2 [Compound 415, N-(2,7-dimethoxy-9H-fluoren-9-yl)-2-oxo-6-(trifluoromethyl)-1,2-dihydropyridine-3-carboxamide]",0.05
16,"Cc1ccc2c(c1)C(NC(=O)c1ccc(C(F)(F)F)[nH]c1=O)c1cc(C)ccc1-2 [Compound 418, N-(2,7-dimethyl-9H-fluoren-9-yl)-2-oxo-6-(trifluoromethyl)-1,2-dihydropyridine-3-carboxamide]",0.07
17,"CNc1ccc(C(NC(=O)c2ccc(C(F)(F)F)[nH]c2=O)c2ccc(C)cc2)cc1 (stereo not shown) [Compound 420, N-((4-(methylamino)phenyl)(p-tolyl)methyl)-2-oxo-6-(trifluoromethyl)-1,2-dihydropyridine-3-carboxamide]",0.13
18,"CC(F)(F)c1ccc(C(=O)NC2c3ccccc3Sc3ccccc32)c(=O)[nH]1 [Compound 423, 6-(1,1-difluoroethyl)-2-oxo-N-(9H-thioxanthen-9-yl)-1,2-dihydropyridine-3-carboxamide]",0.79
19,"CC(F)(F)c1ccc(C(=O)NC2c3ccccc3Oc3ccccc32)c(=O)[nH]1 [Compound 424, 6-(1,1-difluoroethyl)-2-oxo-N-(9H-xanthen-9-yl)-1,2-dihydropyridine-3-carboxamide]",1.14
20,"Cc1ccc2c(c1)S(=O)(=O)c1cc(C)ccc1C2NC(=O)c1cc(N2CCNCC2)c(C(F)(F)F)[nH]c1=O [Compound 425, N-(3,6-dimethyl-10,10-dioxido-9H-thioxanthen-9-yl)-2-oxo-5-(piperazin-1-yl)-6-(trifluoromethyl)-1,2-dihydropyridine-3-carboxamide]",0.27
21,"Cc1ccc2c(c1)Sc1cc(C)ccc1C2NC(=O)c1cc(N2CCN(C)CC2)c(C(F)(F)F)[nH]c1=O [Compound 427, N-(3,6-dimethyl-9H-thioxanthen-9-yl)-5-(4-methylpiperazin-1-yl)-2-oxo-6-(trifluoromethyl)-1,2-dihydropyridine-3-carboxamide]",0.13
22,"Cc1ccc2c(c1)S(=O)(=O)c1cc(C)ccc1C2NC(=O)c1cc(NC2CCCCC2)c(C(F)(F)F)[nH]c1=O [Compound 428, 5-(cyclohexylamino)-N-(3,6-dimethyl-10,10-dioxido-9H-thioxanthen-9-yl)-2-oxo-6-(trifluoromethyl)-1,2-dihydropyridine-3-carboxamide]",0.02
23,"Cc1ccc2c(c1)Oc1cc(C)ccc1C2NC(=O)c1cc(CN2CCNCC2)c(C(F)(F)F)[nH]c1=O [Compound 429, N-(3,6-dimethyl-9H-xanthen-9-yl)-2-oxo-5-(piperazin-1-ylmethyl)-6-(trifluoromethyl)-1,2-dihydropyridine-3-carboxamide]",0.32
24,"Cc1ccc2c(c1)Oc1cc(C)ccc1C2NC(=O)c1cc(N2CCN(Cc3ccccc3)CC2)c(C(F)(F)F)[nH]c1=O [Compound 430, 5-(4-benzylpiperazin-1-yl)-N-(3,6-dimethyl-9H-xanthen-9-yl)-2-oxo-6-(trifluoromethyl)-1,2-dihydropyridine-3-carboxamide]",0.04
25,"Cc1ccc2c(c1)Sc1cc(C)ccc1C2NC(=O)c1cc(NC2CCCCC2)c(C(F)(F)F)[nH]c1=O [Compound 431, 5-(cyclohexylamino)-N-(3,6-dimethyl-9H-thioxanthen-9-yl)-2-oxo-6-(trifluoromethyl)-1,2-dihydropyridine-3-carboxamide]",0.13
